The record followed here is patent US12679849B2, “Macrocyclic compounds as STING agonists” (LUPIN LIMITED, priority 2019, dated 2026).

One test concerns the target T1, Human STING (Homo sapiens, UniProt Q86WV6, G230A/H232R/R293Q/R71H).
T1 construct: using human THP1-Blue™ ISG SEAP based reporter cell line (Invivogen); host or cells: THP1-Blue ISG (human monocytic THP-1 derived SEAP reporter line)
Briefly: Stimulation of human STING signalling in THP1-Blue ISG SEAP reporter cell line. Type of test: cell-based. As to conditions: THP1-Blue ISG cells, 18-20 hours incubation. On the procedure: Stimulation of Human STING Signalling in THP1 Cell Line
Compounds were tested for their STING activation potential using human THP1-Blue™ ISG SEAP based reporter cell line (Invivogen). Briefly, THP1-Blue ISG cells (100,000 cells/well) in 96 well plate were treated with varying concentrations of test and reference compounds and incubated at 37° C. with 5% CO2 for 18-20 hours. The control untreated cells were also set up. Post incubation, the cell supernatant was tested for SEAP (Secreted Embryonic Alkaline Phosphatase) activity using the QuantiBlue™ substrate reagent (Invivogen). The formation of blue coloured product was quantified by measuring absorbance at wavelength of 620 nm using PheraStar/Tecan reader. The average of duplicate readouts for each data point was plotted in GraphPad prism 6 against the concentration of test or reference compound to calculate EC50 value. The fold of SEAP induction or increase in luminescence at different data points was estimated against the un-stimulated cell control set.

The next test deals with IFNβ. Briefly: Cytokine (IFNβ) secretion in serum samples from CT-26 tumor bearing BALB/c mice. Type of test: in vivo, mouse. As to conditions: serum of CT-26 tumor-bearing BALB/c mice, 0.5 mg/kg, 3.5 h. On the procedure:
Quantification of the Cytokine Secretion in Serum Samples from the CT-26 Tumor Bearing BALB/c Mice
CT-26 tumor-bearing animals were administered with test compounds at the dose of 0.5 mg/kg, in a dose-volume of 5 ml/kg. Serum samples were collected at designated time points (3.5 h) and frozen at −80° C. till further estimation. Mouse serum samples were diluted appropriately with dilution buffer before estimation of IFNβ utilizing commercially available kits (VeriKine Mouse IFN Beta ELISA, PBL assay science, Catalog No 42400-2). Raw data values were corrected with the dilution factor and finally expressed in pg/mL.

T1 sequence (Q86WV6 whole entry R71H/G230A/H232R/R293Q): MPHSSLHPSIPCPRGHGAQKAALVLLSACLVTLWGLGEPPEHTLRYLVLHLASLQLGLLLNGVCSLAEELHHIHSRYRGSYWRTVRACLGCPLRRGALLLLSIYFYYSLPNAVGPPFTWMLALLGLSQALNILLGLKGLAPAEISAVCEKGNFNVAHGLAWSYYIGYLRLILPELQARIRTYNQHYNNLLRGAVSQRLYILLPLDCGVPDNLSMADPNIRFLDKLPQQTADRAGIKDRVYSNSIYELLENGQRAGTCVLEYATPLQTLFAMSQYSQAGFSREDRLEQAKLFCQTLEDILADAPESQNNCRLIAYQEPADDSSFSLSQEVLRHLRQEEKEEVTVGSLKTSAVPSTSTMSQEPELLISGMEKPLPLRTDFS

For the compound `CCn1nc(C)cc1C(=O)Nc1nc2cc(C(N)=O)cc3c2n1C/C=C/Cn1c(NC(=O)c2cc(C)nn2CC)nc2cc(C(N)=O)cc(c21)OCC(N1CC2CCC(C1)O2)CO3` [Compound 1, (E)-8-(8-oxa-3-azabicyclo[3.2.1]octan-3-yl)-1,15-bis(1-ethyl-3-methyl-1H-pyrazole-5-carboxamido)-8,9,16,19-tetrahydro-7H-6,10-dioxa-2,14,15a,19a-tetraazacyclopentadeca[3,2,1-cd:8,9,10-c′d′]diindene-4,12-dicarboxamide], the EC50 on Human STING was 1 to 10 nM. For the same compound, in the test with IFNβ, the IFNβ secretion was determined as 4344 pg/mL.
For `CCn1nc(C)cc1C(=O)Nc1nc2cc(C(N)=O)cc3c2n1C/C=C/Cn1c(NC(=O)c2cc(C)nn2CC)nc2cc(C(N)=O)cc(c21)OCC(N1C2CCC1COC2)CO3` [Compound 2, (E)-8-(3-oxa-8-azabicyclo[3.2.1]octan-8-yl)-1,15-bis(1-ethyl-3-methyl-1H-pyrazole-5-carboxamido)-8,9,16,19-tetrahydro-7H-6,10-dioxa-2,14,15a,19a-tetraazacyclopentadeca[3,2,1-cd:8,9,10-c′d′]diindene-4,12-dicarboxamide], the EC50 on Human STING lay within 1 to 10 nM. In the test with IFNβ, this compound displayed an IFNβ secretion of 28305 pg/mL.

The term EC50 denotes the concentration giving half of the maximal effect. Read a high EC50 as weaker potency.
